Paper PMC9004346, “Development of small cyclic peptides targeting the CK2α/β interface” (Chemical Communications (Cambridge, England), 2022)
*1 amine or outer side, *2 acyl side, *3 side chain or, on linkers, in order; H or OH if unused. Where a SMILES comes first, the peptide text is derived from it. Bridges are numbered along the chain shown (N, C = ends). [ ]: non-standard residue; d: D form. Trp(2-yl) = O=C([C@H](Cc1c([*:3])[nH]c2ccccc12)N[*:1])[*:2]; hCys = N[C@@H](CCS)C(=O)O

What was measured:
[1] = target: T1, CK2α (Homo sapiens, UniProt P68400); experiment: Fluorescence polarisation (FP) assay: displacement of a CK2β-like fluorescent probe from CK2α; format: binding; conditions: CK2α_WT (residues 2-329), fluorescein-labelled CK2β-based peptide probe, ±SEM
T1 construct: 571 nM CK2α_WT (residues 2-329); made in house
T1 sequence (P68400 2-329): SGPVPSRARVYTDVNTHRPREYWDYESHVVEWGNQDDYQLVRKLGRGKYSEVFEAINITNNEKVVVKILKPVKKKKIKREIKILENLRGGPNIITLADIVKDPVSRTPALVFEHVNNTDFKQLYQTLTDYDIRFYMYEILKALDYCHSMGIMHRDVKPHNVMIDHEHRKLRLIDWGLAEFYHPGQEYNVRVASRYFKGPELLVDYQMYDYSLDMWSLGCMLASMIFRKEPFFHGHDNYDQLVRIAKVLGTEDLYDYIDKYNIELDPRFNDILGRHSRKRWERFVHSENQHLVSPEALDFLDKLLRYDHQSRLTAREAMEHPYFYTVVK
Text: To assess the ability of the synthesised linear peptides to displace a CK2β-like fluorescent probe from CK2α, a fluorescence polarisation (FP) assay was used (Table 1, ESI 1.3.2 and Fig. S2, ESI ^†). […]
1.5 Biophysical experiments
1.5.1 Protein expression and purification
Three constructs of CK2α were used in this study. For FP assays, CK2α_WT was used (residues 2-329). […]
These constructs were cloned, expressed, and purified as previously described.19 1.5.2 Fluorescence polarisation
IC50’s were determined using a PHERAstar FS plate reader (BMG labtech). The fluorescein probe was measured using 485 nm excitation and 530 nm emission. The fluorescein probe was covalently linked to the N-terminus of the linear CK2β-based peptide RLYGFKIHPMAYQLQ. IC50’s were measured using 500, 167, 16.7, 8.33 and 0 μM of the test peptide at a constant concentration of DMSO. P7C8, P8C9, P+L and P+ were tested at concentrations of 50.0, 16.7, 1.67, 0.833 and 0 μM due to their higher potencies. The experiments were performed in a Corning 384-well plate with final concentrations of 571 nM CK2α_WT (residues 2-329), 7.4 μM fluorescent peptide (fluorescein probe was covalently linked to the N-terminus of the linear CK2β-based peptide RLYGFKIHPMAYQLQ), 200 mM NaCl, 40mM TRIS, 20 mM MgCl2 and pH 7.5. The plates were read after a 45 min incubation period. […]

[2] = Serum stability test; format: in vitro ADME; conditions: 20% human serum in PBS, 37 °C, monitored over 24 h
Procedure: 1.6.3 Serum stability test
500 μL of PBS buffer supplemented with 20% (v/v) of human serum was allocated into an Eppendorf tube and temperature kept at 37 °C for 15 minutes before commencing the experiment. 5 µL of the peptide from 10 mM stock solution in DMSO was added. Caffeine was added as an internal standard (10 μL of a 15 mg/mL solution in MQ water). At specific intervals, 50 µL of the reaction mixture was taken and quenched with 100 µL of a 1:1 mixture of 96% Ethanol:DMSO. The suspension was spun at 13400 g for 10 minutes. 100 μL of the supernatant was analysed using C-18 HPLC with an eluting gradient 5-95% MeCN (0.05% TFA) in water (0.05% TFA) over 15 minutes (90 μL injection volume).
Percentage of intact starting peptide was monitored over 24 h (calculated as the ratio of the area of […]
the peak corresponding to the intact peptide to the area of the peak of caffeine). The experiment was […]
1 M. M. Wiedmann, Y. S. Tan, Y. Wu, S. Aibara, W. Xu, H. F. Sore, C. S. Verma, L. Itzhaki, M.
Stewart, J. D. Brenton and D. R. Spring, Angew. Chemie Int. Ed., 2017, 56, 524–529.
3 G. T. Potter, G. C. Jayson, G. J. Miller and J. M. Gardiner, J. Org. Chem., 2016, 81, 3443–3446.
4 J. Iegre, P. Brear, D. J. Baker, Y. S. Tan, E. L. Atkinson, H. F. Sore, D. H. O’ Donovan, C. S. Verma,
7 C. Puig Duran, F. Albericio Palomera, M. Gongora Benitez, M. Paradis Bas, L. Miret Casals, I. […]

IC50 [1]: 1700 ± 300 nM
Serum stability (in words) [2]: fully stable in serum over 24 h
Structure (SMILES): CC(=O)N[C@H]1CCSc2[nH]c3ccccc3c2C[C@@H](C(N)=O)NC(=O)[C@H](CCCCN)NC(=O)[C@H](Cc2ccccc2)NC(=O)CNC(=O)[C@H](Cc2ccc(O)cc2)NC(=O)[C@H](CC(C)C)NC(=O)[C@H](CCCNC(=N)N)NC1=O [Peptide P8C9, (hC)C9RLYGFKWC9] (Ac-[hCys]RLYGFK[Trp(2-yl)]-NH2; thioether 1-8)
